Results on three compounds are retold here after US20070265335A1, “POLYMORPHS OF 5-CYCLOPROPYL-2-(4-FLUOROPHENYL)-6-[(2-HYDROXYETHYL)(METHYLSUFONYL)AMINO]-N-METHYL-1-BENZOFURAN-3-CARBOXAMIDE AND METHODS OF MAKING THE SAME” (WYETH, priority 2005, published 2007).

One series has as its system hepatitis C virus. The following applies: as disclosed in U.S. Patent Application Publication No. 2004-0162318; cited from earlier work.
A further series is described as follows: settling from suspension. The class given is physicochemical. From the text: (§1) The first embodiment of the present invention is directed to a substantially pure polymorphic form A of 5-cyclopropyl-2-(4-fluorophenyl)-6-[(2-hydroxyethyl)(methylsulfonyl)amino]-N-methyl-1-benzofuran-3-carboxamide. The terms “polymorphic form”, “crystal modification”, “polymorph”, and “crystalline form” are used interchangeably herein. As used herein, the terms “isolated” and/or “substantially pure” mean more than 50% of the crystalline 5-cyclopropyl-2-(4-fluorophenyl)-6-[(2-hydroxyethyl)(methylsulfonyl)amino]-N-methyl-1-benzofuran-3-carboxamide or salt thereof is present in the form described herein and preferably at least 70%, more preferably at least 80%, and most preferably at least 90% of the crystalline form described herein is present. […] The peaks shown therein include: 8.4°, 9.0°, 9.8°, 10.1°, 12.6°, 12.9°, 13.2°, 13.4°, 15.9°, 16.4°, 16.8°, 17.4°, 17.9°, 18.4°, 18.5°, 19.0°, 19.2°, 19.7°, 19.8°, 20.0°, 20.2°, 20.5°, 21.0°, 21.7°, 22.2°, 22.6°, 23.6°, 24.0°, 24.5°, 24.7°, 24.9°, 25.3°, 25.9°, 26.0°, 26.5°, 26.9°, 27.3°, 27.6°, 28.1°, 28.7°, […], 30.0°, 30.7°, 31.0°, 31.9°, 32.1°, 32.5°, 33.6°, 34.4°, 34.8°, 35.1°, 35.6°, 36.7°, 36.9°, 37.5°, 38.4°, 38.8°, 39.2° and 39.6° (2θ degrees); one of ordinary skill in the art will readily understand that an about 0.1° to about 0.2° variation for peak positions is typical. […]

A short description of series [1]: thermodynamic stability of the crystalline form. The following applies: as indicated by its high melting point of about 175° C. The class given is physicochemical.
Source text: as §1

Series [2] can be described thus: hygroscopicity on exposure to air. The class given is physicochemical. The following applies: exposed to air for a period of about 1 week.
Source text: as §1

For the compound `CNC(=O)c1c(-c2ccc(F)cc2)oc2cc(N(CCO)S(C)(=O)=O)c(C3CC3)cc12` [5-cyclopropyl-2-(4-fluorophenyl)-6-[(2-hydroxyethyl)(methylsulfonyl)amino]-N-methyl-1-benzofuran-3-carboxamide], in the series with hepatitis C virus, the “inhibition of the hepatitis C virus” value was “potent inhibitor”.
Turning to `CNC(=O)c1c(-c2ccc(F)cc2)oc2cc(N(CCO)S(C)(=O)=O)c(C3CC3)cc12` [form A, 5-cyclopropyl-2-(4-fluorophenyl)-6-[(2-hydroxyethyl)(methylsulfonyl)amino]-N-methyl-1-benzofuran-3-carboxamide], the settling from suspension result in “settling from suspension” was “tends to settle quickly from suspension”. The “thermodynamic stability of polymorph” value in series [1] is “thermodynamically favored stable form”. Further, the hygroscopicity result in series [2] was “non-hygroscopic”.
For the compound `CNC(=O)c1c(-c2ccc(F)cc2)oc2cc(N(CCO)S(C)(=O)=O)c(C3CC3)cc12` [form B, 5-cyclopropyl-2-(4-fluorophenyl)-6-[(2-hydroxyethyl)(methylsulfonyl)amino]-N-methyl-1-benzofuran-3-carboxamide], in the series “settling from suspension”, the settling from suspension entry is given as “tends not to settle quickly from suspension”.
